How the values were obtained:
[1] = target: Poly [ADP-ribose] polymerase 1 (Rattus norvegicus) (UniProt P27008); assay: Inhibition of PARP1 in rat PC12 cells assessed as NAD+ recovery at 1 uM pre-treated for 1 hr before hydrogen peroxide addition followed by washout and compound treated again for 1 hr relative to control; format: cell-based; conditions: PC-12
[2] = target: Poly [ADP-ribose] polymerase 1 (Rattus norvegicus) (UniProt P27008); assay: Inhibition of PARP1 in rat PC12 cells assessed as NAD+ recovery at 10 uM pre-treated for 1 hr before hydrogen peroxide addition followed by washout and compound treated again for 1 hr relative to 5H-phenanthridin-6-one; format: cell-based; conditions: PC-12
[3] = target: Poly [ADP-ribose] polymerase 1 (Rattus norvegicus) (UniProt P27008); assay: Inhibition of PARP1 in rat PC12 cells assessed as NAD+ recovery at 30 uM pre-treated for 1 hr before hydrogen peroxide addition followed by washout and compound treated again for 1 hr relative to 5H-phenanthridin-6-one; format: cell-based; conditions: PC-12
[4] = target: Poly [ADP-ribose] polymerase 1 (Homo sapiens, UniProt P09874); assay: Inhibition of recombinant human PARP1 by in vitro assay
[5] = target: Poly [ADP-ribose] polymerase 1 (Rattus norvegicus) (UniProt P27008); assay: Inhibition of PARP1 in rat PC12 cells assessed as NAD+ recovery at 3 uM pre-treated for 1 hr before hydrogen peroxide addition followed by washout and compound treated again for 1 hr relative to 5H-phenanthridin-6-one; format: cell-based; conditions: PC-12

Sequence of Poly [ADP-ribose] polymerase 1 (Rattus norvegicus) (P27008 whole entry): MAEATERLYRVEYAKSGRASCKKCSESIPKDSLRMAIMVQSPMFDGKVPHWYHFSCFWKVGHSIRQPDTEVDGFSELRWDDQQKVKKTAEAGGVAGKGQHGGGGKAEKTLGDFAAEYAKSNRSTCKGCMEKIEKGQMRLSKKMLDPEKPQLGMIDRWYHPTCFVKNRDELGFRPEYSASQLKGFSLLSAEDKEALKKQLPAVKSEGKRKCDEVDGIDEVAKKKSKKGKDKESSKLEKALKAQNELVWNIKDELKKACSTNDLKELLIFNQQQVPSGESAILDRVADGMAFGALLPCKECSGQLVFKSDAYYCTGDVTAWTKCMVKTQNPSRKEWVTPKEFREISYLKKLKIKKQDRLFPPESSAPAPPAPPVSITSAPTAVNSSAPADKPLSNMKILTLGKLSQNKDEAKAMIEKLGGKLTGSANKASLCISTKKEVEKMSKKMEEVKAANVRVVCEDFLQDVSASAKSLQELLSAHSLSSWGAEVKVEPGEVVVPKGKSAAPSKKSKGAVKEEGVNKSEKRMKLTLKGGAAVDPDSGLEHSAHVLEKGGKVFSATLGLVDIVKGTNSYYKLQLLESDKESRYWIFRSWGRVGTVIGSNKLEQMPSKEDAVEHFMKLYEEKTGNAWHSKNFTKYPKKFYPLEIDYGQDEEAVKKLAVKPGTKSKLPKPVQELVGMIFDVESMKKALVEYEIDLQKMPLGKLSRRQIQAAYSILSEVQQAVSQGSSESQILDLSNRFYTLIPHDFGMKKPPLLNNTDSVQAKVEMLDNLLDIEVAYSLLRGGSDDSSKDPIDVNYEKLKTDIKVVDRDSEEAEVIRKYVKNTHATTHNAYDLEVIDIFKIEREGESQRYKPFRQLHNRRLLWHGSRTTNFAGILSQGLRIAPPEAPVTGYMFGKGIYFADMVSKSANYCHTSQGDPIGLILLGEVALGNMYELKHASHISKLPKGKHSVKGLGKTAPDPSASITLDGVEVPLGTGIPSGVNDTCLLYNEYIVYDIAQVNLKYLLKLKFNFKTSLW
Sequence of Poly [ADP-ribose] polymerase 1 (P09874 whole entry): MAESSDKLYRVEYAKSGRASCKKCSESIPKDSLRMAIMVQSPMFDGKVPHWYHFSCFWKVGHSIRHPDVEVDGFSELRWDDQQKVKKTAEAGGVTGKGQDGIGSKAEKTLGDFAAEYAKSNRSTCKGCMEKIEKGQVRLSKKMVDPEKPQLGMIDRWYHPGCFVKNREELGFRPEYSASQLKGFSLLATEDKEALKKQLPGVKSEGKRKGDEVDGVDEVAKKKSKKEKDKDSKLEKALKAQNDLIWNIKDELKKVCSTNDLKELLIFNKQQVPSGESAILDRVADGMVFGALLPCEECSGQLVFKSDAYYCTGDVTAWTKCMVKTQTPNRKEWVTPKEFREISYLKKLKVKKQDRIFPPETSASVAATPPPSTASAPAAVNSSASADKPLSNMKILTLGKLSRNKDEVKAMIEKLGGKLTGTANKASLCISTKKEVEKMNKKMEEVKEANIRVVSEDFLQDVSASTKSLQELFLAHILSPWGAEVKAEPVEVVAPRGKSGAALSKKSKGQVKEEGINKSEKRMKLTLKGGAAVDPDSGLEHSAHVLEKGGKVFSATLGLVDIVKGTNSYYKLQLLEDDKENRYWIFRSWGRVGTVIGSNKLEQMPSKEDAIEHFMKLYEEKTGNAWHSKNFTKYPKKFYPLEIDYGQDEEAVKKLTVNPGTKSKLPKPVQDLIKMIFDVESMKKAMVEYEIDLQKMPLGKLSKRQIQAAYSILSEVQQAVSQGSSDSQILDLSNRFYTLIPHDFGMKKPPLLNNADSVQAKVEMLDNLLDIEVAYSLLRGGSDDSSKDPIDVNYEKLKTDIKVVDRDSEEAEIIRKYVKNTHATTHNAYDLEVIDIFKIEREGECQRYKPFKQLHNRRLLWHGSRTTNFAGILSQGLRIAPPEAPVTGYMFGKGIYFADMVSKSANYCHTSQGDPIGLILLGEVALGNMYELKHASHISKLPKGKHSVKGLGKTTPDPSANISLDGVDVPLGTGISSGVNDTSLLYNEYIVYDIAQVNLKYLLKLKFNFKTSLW

SMILES	inhibition [1] [%]	inhibition [2] [%]	inhibition [3] [%]	IC50 [4] [nM]	inhibition [5] [%]
O=C(CCC(=O)c1ccc2[nH]c3c4c(c5c(c3c2c1)C(=O)NC5=O)CCC4)NCCO	24	26			
CN1N=C(c2ccc3[nH]c4c5c(c6c(c4c3c2)C(=O)NC6=O)CCC5)CCC1=O	29				
NCCNC(=O)CCC(=O)c1ccc2[nH]c3c4c(c5c(c3c2c1)C(=O)NC5=O)CCC4	14	32			
CN(CC(=O)OC(C)(C)C)CC(=O)c1ccc2[nH]c3c4c(c5c(c3c2c1)C(=O)NC5=O)CCC4	14		73	19	
O=C1CCC(c2ccc3[nH]c4c5c(c6c(c4c3c2)C(=O)NC6=O)CCC5)=NN1	29	49			
O=C1NC(=O)c2c1c1c(c3[nH]c4ccccc4c23)CCC1	30		42		
CCN(CC)C(=O)CCC(=O)c1ccc2[nH]c3c4c(c5c(c3c2c1)C(=O)NC5=O)CCC4	41		78		
CC(C)(C)OC(=O)[C@@H]1CCCN1C(=O)CCC(=O)c1ccc2[nH]c3c4c(c5c(c3c2c1)C(=O)NC5=O)CCC4	39		98		
NC(=O)[C@@H]1CCCN1C(=O)CCC(=O)c1ccc2[nH]c3c4c(c5c(c3c2c1)C(=O)NC5=O)CCC4	11				
O=C(CCC(=O)N1CCC[C@H]1C(=O)O)c1ccc2[nH]c3c4c(c5c(c3c2c1)C(=O)NC5=O)CCC4	4			2	14
CC(C)(C)OC(=O)NCCNC(=O)CCC(=O)c1ccc2[nH]c3c4c(c5c(c3c2c1)C(=O)NC5=O)CCC4	26		48		

The remaining lines, values ahead:

inhibition [1] [%]	inhibition [2] [%]	inhibition [3] [%]	IC50 [4] [nM]	inhibition [5] [%]	SMILES
25		55			O=C(Cn1cncn1)c1ccc2[nH]c3c4c(c5c(c3c2c1)C(=O)NC5=O)CCC4
38	63		13		O=C(CN1CCOCC1)c1ccc2[nH]c3c4c(c5c(c3c2c1)C(=O)NC5=O)CCC4
19		29			CC(C)(C)OC(=O)N1CCN(C(=O)CCC(=O)c2ccc3[nH]c4c5c(c6c(c4c3c2)C(=O)NC6=O)CCC5)CC1
7	43				CN1CCN(CC(=O)c2ccc3[nH]c4c5c(c6c(c4c3c2)C(=O)NC6=O)CCC5)CC1
14		50			O=C(CN1CCCCC1)c1ccc2[nH]c3c4c(c5c(c3c2c1)C(=O)NC5=O)CCC4
27		100	12		COC(=O)[C@@H]1CCCN1CC(=O)c1ccc2[nH]c3c4c(c5c(c3c2c1)C(=O)NC5=O)CCC4
10		70			CCN(CC)CC(=O)c1ccc2[nH]c3c4c(c5c(c3c2c1)C(=O)NC5=O)CCC4
55		59			O=C(CCC(=O)N1CCCCC1)c1ccc2[nH]c3c4c(c5c(c3c2c1)C(=O)NC5=O)CCC4
14		43	7		O=C(CN1CCC[C@H]1C(=O)O)c1ccc2[nH]c3c4c(c5c(c3c2c1)C(=O)NC5=O)CCC4
24		88			CC(C)(C)OC(=O)[C@@H]1CCCN1CC(=O)c1ccc2[nH]c3c4c(c5c(c3c2c1)C(=O)NC5=O)CCC4
8		42			O=C(O)CCC(=O)c1ccc2[nH]c3c4c(c5c(c3c2c1)C(=O)NC5=O)CCC4
38		65			O=C(CCC(=O)N1CCOCC1)c1ccc2[nH]c3c4c(c5c(c3c2c1)C(=O)NC5=O)CCC4
14		45			CN(CC(=O)O)CC(=O)c1ccc2[nH]c3c4c(c5c(c3c2c1)C(=O)NC5=O)CCC4
32		92			O=C(CCC(=O)N1CCCC1)c1ccc2[nH]c3c4c(c5c(c3c2c1)C(=O)NC5=O)CCC4
10					O=C(CCC(=O)N1CCNCC1)c1ccc2[nH]c3c4c(c5c(c3c2c1)C(=O)NC5=O)CCC4
